Data: patent US20230014907A1, “INHIBITORS OF APOL1 AND METHODS OF USING SAME” (Vertex Pharmaceuticals Incorporated, priority 2020, published 2023)

Molecular target: T1, G1 APOL1 (Homo sapiens, UniProt O14791, I384M/S342G)
T1 construct: expressed in transfected cells
T1 sequence (O14791 28-398 S342G/I384M): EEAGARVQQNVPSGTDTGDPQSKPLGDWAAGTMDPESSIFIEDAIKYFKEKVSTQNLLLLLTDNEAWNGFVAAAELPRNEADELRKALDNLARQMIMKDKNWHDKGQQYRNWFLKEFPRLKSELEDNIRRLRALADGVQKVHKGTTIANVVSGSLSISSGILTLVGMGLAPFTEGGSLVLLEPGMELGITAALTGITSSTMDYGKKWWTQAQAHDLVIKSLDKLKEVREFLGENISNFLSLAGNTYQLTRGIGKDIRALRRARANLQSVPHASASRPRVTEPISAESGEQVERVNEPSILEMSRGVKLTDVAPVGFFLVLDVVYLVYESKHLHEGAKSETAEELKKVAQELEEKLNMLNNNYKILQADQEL
Assay: Acute APOL1 Thallium Assay with Inducible Stable Clones of HEK 293 Cells
Assay type: cell-based
Settings: HEK 293 inducible stable clones, G1 APOL1; read-out: Thallium Assay (IC50)
Description: Acute APOL1 Thallium Assay with Inducible Stable Clones of HEK 293 Cells
Apolipoprotein L1 (APOL1) proteins form potassium-permeable cation pores in the plasma membrane. APOL1 risk variants (G1 and G2) induce greater potassium flux than G0 in HEK293 cells. This assay exploits the permeability of thallium (Tl+) through ligand-gated potassium channels. The dye produces a bright fluorescent signal upon binding to Tl+ conducted through potassium channels. The intensity of the Tl+ signal is proportional to the number of potassium channels in the open state. Therefore, it provides a functional indication of the potassium channel activities. During the initial dye-loading step, the Tl+ indicator dye as an acetoxymethyl (AM) ester enters the cells through passive diffusion. Cytoplasm esterases cleave the AM ester and relieve its active thallium-sensitive form. The cells are then stimulated with Tl+. The increase of fluorescence in the assay represents the influx of Tl+ into the cell specifically through the potassium channel (i.e. through APOL1 pores), providing a functional measurement of potassium channel/pore activity. The Thallium assay is conducted with cells expressing G1 APOL1.
APOL1 Cell Line (HEK T-Rex Stable Inducible Cell Line) • HEK T-Rex System • Tetracycline (Tet) inducible mammalian expression system. • Stably express the Tet repressor to regulate transcription. • Expression under the full-length CMV promoter. • APOL1 stable inducible cell line Clone used: G1 DC3.25
Tissue Culture Media • Cell Culture Medium • DMEM+10% FBS+P/S+5 μg/mL blasticidin+1 μg/mL puromycin. • 500 mL DMEM+55 mL FBS+5 mL P/S+280 μL blasticidin S HCl (10 mg/mL)+56 μL puromycin (10 mg/mL). • Cell Assay Medium • DMEM with 2% FBS+penicillin/streptomycin.
Instruments and Equipment • Nuaire cell culture hood, Cat. No. 540-600 • 37° C./5% CO2 incubator link to robotic arm, Liconic: STX110 • Molecular Devices FLIPR^Tetra High throughput cellular screening system, Cat. No. FT0324, Molecular Devices • ThermoFisher MultiDrop 384, Cat. No. 5840300 • Biotek Microfill, Cat. No. ASF1000A-4145 • BioRad TC10 cell counter, Cat. No. 145-0010
Cells Scaled Up from Frozen Vials • APOL1 G1 3.25 (HEK293 T-Rex) frozen vials: 5 million cells per vial • Step 1, Day 1: Defrost frozen vial into T-225. • Step 2, Day 5: (when 85% confluent): Split one T-225 at 3×10^6 cells per flask. • Step 3, Day 8: Splits cells to set up for the assay plates as described below.
T-Rex APOL1 HEK cells are split twice per week to keep the confluence state below 85% of the culture flask surface area. Cells can be kept until passage 25. • Cell Culture Medium • DMEM high glucose+10% FBS, +P/S, +5 μg/mL blasticidin, +1 μg/mL puromycin. • 500 mL DMEM, +55 mL FBS, +5 mL P/S, +280 μL blasticidin 10 mg/mL, +56 μL Puromycin 10 mg/mL. • Assay Media • Opti-MEM reduced serum medium from Invitrogen.
Preparation of Cell Assay Plates • Culture medium is removed from the x cm^2 T-flask by aspiration. • The cell monolayer is rinsed with PBS 1× at room temperature. PBS is removed by aspiration. • Cells are trypsinized using Trypsin. • The flasks are incubated at room temperature for 2-3 minutes. • Complete DMEM medium is then added. Cell suspension is then transferred to a 50 mL Falcon polypropylene tube. • Cells are then counted using a BioRad TC10 cell counter and the required amount of cells are centrifuged at 1200 RPM for 5 minutes. Required amount is 1.3×10^6 cells/mL APOL1 T-Rex HEK cells. • The pellet is suspended in the assay medium. • Using the MultiDrop, add 20 μL to each well (corresponds to 26000 cells total per well) of a 384-well black, transparent, flat bottom Poly-D coated plate. • Tetracycline as prepared in the following section is added to the cells before plating to induce APOL1 expression. • Plates are left at room temperature for 20 to 30 minutes before incubation at 37° C. and 5% CO2. […]

SMILES | IC50 [nM]
O=C(NCCc1c(-c2ccc(F)cc2)[nH]c2c(F)cc(F)cc12)C1(CO)CC1 [Compound 347] | < 250
COCCC(=O)NCCc1c(-c2ccc(F)cc2)[nH]c2c(F)cc(F)cc12 [Compound 412] | 250 to 1000
O=C(NCCc1c(-c2ccc(F)cc2)[nH]c2c(F)cc(F)cc12)c1cscn1 [Compound 385] | > 1000
O=C(NCCc1c(-c2ccc(F)cc2)[nH]c2c(F)cc(F)cc12)[C@@H]1CCOC1 [Compound 409] | > 1000
CC1(CO)CCN1C(=O)OCCc1c(-c2ccc(F)cc2)[nH]c2c(F)cc(F)cc12 (racemic) [Compound 480] | > 1000
CC(CO)(CO)NC(=O)CCc1c(-c2ccc(F)cc2)[nH]c2c(F)cc(Cl)cc12 [Compound 197] | 250 to 1000
CS(=O)(=O)CC(=O)NCCc1c(-c2ccc(F)cc2)[nH]c2c(F)cc(F)cc12 [Compound 382] | > 1000
O=C(NCCc1c(-c2ccc(F)cc2)[nH]c2c(F)cc(F)cc12)C(O)C1CC1 (stereo not shown) [Compound 346] | 250 to 1000
Cn1ccnc1S(=O)(=O)NCCc1c(-c2ccc(F)cc2)[nH]c2c(F)cc(F)cc12 [Compound 424] | > 1000
O=C(NCCc1c(-c2ccc(F)cc2)[nH]c2c(F)cc(F)cc12)c1cccnc1 [Compound 401] | > 1000
O=C(NC(CO)CO)OCCc1c(-c2ccc(F)cc2)[nH]c2c(F)cc(F)cc12 [Compound 437] | < 250
CC(O)CCNC(=O)NCCc1c(-c2ccc(F)cc2)[nH]c2c(F)cc(F)cc12 (stereo not shown) [Compound 278] | > 1000
O=C(NC1(CO)CC1)OCCc1c(-c2ccc(F)cc2)[nH]c2c(F)cc(F)cc12 [Compound 438] | < 250
Cc1ccnn1CCC(=O)NCCc1c(-c2ccc(F)cc2)[nH]c2c(F)cc(F)cc12 [Compound 372] | > 1000
O=C(NCC1CCOC1)OCCc1c(-c2ccc(F)cc2)[nH]c2c(F)cc(F)cc12 (stereo not shown) [Compound 491] | > 1000
O=C(NC1CCOC1)OCCc1c(-c2ccc(F)cc2)[nH]c2c(F)cc(F)cc12 (stereo not shown) [Compound 463] | 250 to 1000
Cc1cnn(CC(=O)NCCc2c(-c3ccc(F)cc3)[nH]c3c(F)cc(F)cc23)c1 [Compound 379] | > 1000
O=C1N[C@H](C(=O)NCCc2c(-c3ccc(F)cc3)[nH]c3c(F)cc(F)cc23)CS1 [Compound 322] | > 1000
O=C(NCC1(O)CCC1)OCCc1c(-c2ccc(F)cc2)[nH]c2c(F)cc(F)cc12 [Compound 486] | > 1000
CC(C#N)(CO)NC(=O)OCCc1c(-c2ccc(F)cc2)[nH]c2c(F)cc(F)cc12 (racemic) [Compound 461] | 250 to 1000
O=C(CCc1c(-c2ccc(F)cc2)[nH]c2c(F)cc(F)cc12)NC1=CCNC1=O [Compound 94, 3-[5,7-difluoro-2-(4-fluorophenyl)-1H-indol-3-yl]-N-(5-oxo-1,2-dihydropyrrol-4-yl)propanamide] | > 1000
O=C1CC(NC(=O)CCCc2c(-c3ccc(F)cc3)[nH]c3c(F)cc(F)cc23)CN1 (stereo not shown) [Compound 253] | > 1000
NC(=O)[C@@H](CO)NC(=O)OCCc1c(-c2ccc(F)cc2)[nH]c2c(F)cc(F)cc12 [Compound 447] | < 250

SMILES | IC50 [nM]
CC(C)(C#N)C(=O)NCCc1c(-c2ccc(F)cc2)[nH]c2c(F)cc(F)cc12 [Compound 411] | 250 to 1000
O=C(NCCc1c(-c2ccc(F)cc2)[nH]c2c(F)cc(F)cc12)NC1(CCO)CC1 [Compound 274] | 250 to 1000
O=C(NCCc1c(-c2ccc(F)cc2)[nH]c2c(F)cc(F)cc12)c1cc(C(F)(F)F)n[nH]1 [Compound 315] | > 1000
O=C(Cc1cnccn1)NCCc1c(-c2ccc(F)cc2)[nH]c2c(F)cc(F)cc12 [Compound 381] | > 1000
COC[C@H](C)NC(=O)OCCc1c(-c2ccc(F)cc2)[nH]c2c(F)cc(F)cc12 [Compound 444] | < 250
CN(C)C(=O)CCC(=O)NCCc1c(-c2ccc(F)cc2)[nH]c2c(F)cc(F)cc12 [Compound 374] | > 1000
N#Cc1ccc(-c2[nH]c3c(F)cc(F)cc3c2/C=C/C(=O)N[C@H]2CCNC2=O)cc1 [Compound 522, (E)-3-[2-(4-cyanophenyl)-5,7-difluoro-1H-indol-3-yl]-N-[(3S)-2-oxopyrrolidin-3-yl]prop-2-enamide] | > 1000
CC(C)(O)C#Cc1c(-c2ccc(F)cc2)[nH]c2c(F)cc(F)cc12 [Compound 523, 4-[5,7-difluoro-2-(4-fluorophenyl)-1H-indol-3-yl]-2-methyl-but-3-yn-2-ol] | > 1000
C[C@H](NC(=O)OC(C)(C)C)C(=O)NCCc1c(-c2ccc(F)cc2)[nH]c2c(F)cc(F)cc12 [Compound 313] | > 1000
O=C(O)CNC(=O)NCCc1c(-c2ccc(F)cc2)[nH]c2c(F)cc(F)cc12 [Compound 285] | > 1000
CC(C)(CO)C(=O)NCCc1c(-c2ccc(F)cc2)[nH]c2c(F)cc(F)cc12 [Compound 341] | 250 to 1000
CC(CO)C(=O)NCCc1c(-c2ccc(F)cc2)[nH]c2c(F)cc(F)cc12 (racemic) [Compound 357] | < 250
COC1CC1NC(=O)OCCc1c(-c2ccc(F)cc2)[nH]c2c(F)cc(F)cc12 (stereo not shown) [Compound 479] | > 1000
O=C(NC[C@H](O)CO)OCCc1c(-c2ccc(F)cc2)[nH]c2c(F)cc(F)cc12 [Compound 470] | 250 to 1000
O=C(N[C@@H](CO)C(F)F)OCCc1c(-c2ccc(F)cc2)[nH]c2c(F)cc(F)cc12 [Compound 441] | < 250
O=C1CC(C(=O)NCCc2c(-c3ccc(F)cc3)[nH]c3c(F)cc(F)cc23)CC(=O)N1 [Compound 320] | > 1000
CC1(C(=O)NCCc2c(-c3ccc(F)cc3)[nH]c3c(F)cc(F)cc23)CCC(=O)NC1 (stereo not shown) [Compound 319] | > 1000
CC(CC(=O)NCCc1c(-c2ccc(F)cc2)[nH]c2c(F)cc(F)cc12)C(N)=O (racemic) [Compound 335] | > 1000
O=C(N[C@H]1COC[C@@H]1O)OCCc1c(-c2ccc(F)cc2)[nH]c2c(F)cc(F)cc12 [Compound 474] | 250 to 1000
CNC(=O)CC(=O)NCCc1c(-c2ccc(F)cc2)[nH]c2c(F)cc(F)cc12 [Compound 345] | > 1000
Cc1cc(F)c2[nH]c(-c3ccc(F)cc3)c(CCC(=O)NCCO)c2c1 [Compound 218] | > 1000
CNC(=O)CCCc1c(-c2ccc(F)cc2)[nH]c2c(F)cc(F)cc12 [Compound 239, 4-(5,7-difluoro-2-(4-fluorophenyl)-1H-indol-3-yl)-N-methylbutanamide] | 250 to 1000
O=C(NCCO)OCCc1c(-c2ccc(F)cc2)[nH]c2c(F)cc(F)cc12 [Compound 443] | < 250
